Measured values taken from patent US20120116027A1, “PROCESS FOR THE PURIFICATION OF HUMAN GROWTH HORMONE POLYPEPTIDES USING AFFINITY RESINS COMPRISING SPECIFIC LIGANDS” (priority 2008, published 2012).
Where a SMILES comes first, the peptide text is derived from it. [ ]: non-standard residue; d: D form. The star is where a group is joined. X1 = O=C(c1ccc2ccccc2c1O)*; Dap = NC[CH](N)C(=O)O; Aib = CC(C)(N)C(=O)O

Assays:
wild type hGH = wild type hGH (Homo sapiens, UniProt P01241); test: Binding capacity for wild type hGH of ligands synthesized on Fractogel Amino (1 mL columns); settings: ligand on Fractogel Amino; for Measured binding capacity (mg hGH/mL resin): load 5 mg/mL hGH in 25 mM Tris-HCl pH 7.50, 0.5 mL/min, elution gradient 1M NaCl/25 mM Tris pH 7.5
Procedure: (§1) were stepwise synthesized on Fractogel Amino (Merck) with amine loading 0.16 mmol/g and particle size 40-90 μm. The resins were washed thoroughly with DMF, DCM, and ethanol and packed in 1 mL columns and washed with 0.2 M NaOH and then with 20% ethanol, and equilibrated with 25 mM Tris-HCl at pH=7.50 (buffer A).
Binding capacity for wild type hGH was measured for each resin sample by • a) loading the column with a 5 mg/mL solution of hGH in buffer A at a flow rate of 0.5 mL/min, • b) washing the column with at least 10 column volumes of buffer A until a steady low UV absorbance of the buffer leaving the column was observed, • c) eluting the protein by applying a gradient of 1M NaCl/25 mM Tris at pH=7.5 (buffer B) • d) cleaning the column with 0.2 M NaOH, then with buffer B, and then with buffer A.
The binding capacity was calculated by integrating the UV signal during step (c) and indicated for each ligand above.

hGH [1] = molecular target: T1, hGH (Homo sapiens, UniProt P01241); test: Resin selectivity test with hGH fermentation broth, judged by SDS page gels of the eluate; settings: ligand on Fractogel Amino, hGH fermentation broth diluted five times with buffer A
T1 construct: made in house; host or cells: E. coli
Procedure: as §1
Resin selectivity was tested by • (a) loading the column with hGH fermentation broth diluted five times with buffer A • (b) washing the column with at least 10 column volumes of buffer A until a steady low UV absorbance of the buffer leaving the column was observed, • (c) eluting the protein by applying a gradient of buffer B • (d) cleaning the column with 0.2 M NaOH, then with buffer B, and then with buffer A.
“Observed selectivity” was judged by SDS page gels of the eluate […] and indicated for each ligand above. An example of a resin with “very good” selectivity (ligand L11 on Fractogel) and an example of a resin with “moderate” selectivity (ligand L6 on Fractogel) are given in FIG. 3.

hGH [2] = molecular target: T1, hGH; test: Evaluation of ligand synthesized directly on Fractogel in 5 mL scale (capacity, recovery, purity); type: binding; settings: load 50 mM BisTris pH 6.25, elution 50 mM BisTris pH 8.00 gradient; for Dynamic 10% BT capacity for micro-filtrate hGH / Dynamic 10% BT capacity for pure hGH: 2 mL/min
Procedure: Ligand L14 from Example 1 was synthesized directly on Fractogel. The resin was evaluated in 5 mL scale.
Load buffer: 50 mM BisTris at pH 6.25
Elution buffer: 50 mM BisTris at pH 8.00 gradient
Temperature: 15° C. (20° measured by Äkta)
Ligand L16 from Example 1 was synthesized directly on Fractogel Amino. This resin was evaluated in 5 mL scale.

hGH [3] = molecular target: T1, hGH; test: Affinity purification of hGH from E. coli micro-filtrate with ligand L10 resin (purity and recovery); settings: load 50 mM BisTris-HCl pH 6.25
Procedure: (§2) Ligand L10 from Example 1 was synthesized step-wise on Fractogel Amino M (Supplied by Merck KgaA), and the resulting affinity resin was packed in Tricorn 5/50, 1 mL (GE Healthcare).
(§3) hGH micro-filtrate buffer: 2.61 mg/mL hGH E. coli micro-filtrate from hGH harvest. A frozen 15 mL sample was thawed at room temperature and filtered using a syringe-driven filter ([…]). Diluted to 0.52 mg hGH/mL with Buffer A.
An elution buffer of 200 mM Tris-HCl, pH 8.00, 1 M NaCl, 30% propylene glycol results in high recovery of hGH. This elution buffer and the aforementioned 50 mM BisTris-HCl, pH 6.5 load buffer was used. The column was overloaded with hGH. The results from an experiment using these conditions are shown below:
The loading buffer was changed to 50 mM BisTris-HCl at pH 6.25 and different elution buffers at pH 7.25, 7.50 and 8.00 were tested.
Chromatograms and gels are shown in FIG. 8 for the run with the following conditions: Load buffer: 50 mM BisTris at pH 6.25 and Elution buffer: 50 mM BisTris at pH 8.00

hGH [4] = test: Dynamic 10% BT capacity of ligand L10 on Fractogel Amino M; type: binding, human; settings: load 50 mM BisTris-HCl pH 6.50, 0.5 mL/min (150 cm/h), 15° C.
Procedure: as §2
(§4) hGH standard: hGH was dissolved to 20 mg/mL in freshly made 50 mM NH41-1CO3, then diluted to 2 or 3.3 mg/mL with Buffer A (50 mM Tris-HCl, pH=7.50, T=15° C. (20° C. in Äkta)).
as §3
(§5) Buffer A1: 50 mM BisTris-HCl, pH=6.50, T=15° C. (20° C. in Äkta), flow 0.5 mL/min (150 cm/h)
(§6) Buffer Z1: 25 mM Tris-HCl, 1M NaCl, pH=7.50, T=15° C. (20° C. in Äkta), flow 0.5 mL/min (150 cm/h)

hGH [5] = molecular target: T1, hGH; test: as above; type: binding; settings: load 50 mM BisTris-HCl pH 6.50, 0.5 mL/min (150 cm/h), 15° C.
Procedure: as §2, §4, §3, §5, §6

T1 sequence (P01241 27-217): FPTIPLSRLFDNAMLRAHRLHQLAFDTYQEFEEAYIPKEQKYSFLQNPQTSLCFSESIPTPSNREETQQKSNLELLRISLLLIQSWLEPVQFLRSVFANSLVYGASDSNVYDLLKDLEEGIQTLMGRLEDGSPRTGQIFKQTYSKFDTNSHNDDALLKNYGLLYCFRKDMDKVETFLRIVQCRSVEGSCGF
Sequence of wild type hGH (P01241 27-217): as above

Structure (SMILES)	Measured binding capacity (mg hGH/mL resin) (wild type hGH)	Observed selectivity (hGH [1])	further results
CC[C@@H](C)[C@H](N)C(=O)N[C@@H](CCCCN)C(=O)N[C@@H](CNC(=O)c1c(C)nc2ccccn12)C(=O)O [L16]	>10	Moderate	Purity (hGH [2]): 70%; Dynamic 10% BT capacity for micro-filtrate hGH (hGH [2]): 5.7 mg/mL; Dynamic 10% BT capacity for pure hGH (hGH [2]): 11.9 mg/mL
C[C@@H](O)[C@H](NC(=O)[C@@H](N)CCCNC(=N)N)C(=O)N[C@@H](CNC(=O)c1c2c(nc3ccccc13)CCCC2)C(=O)O [L13]	>10	Moderate	
NCCCC[C@H](N)C(=O)N[C@@H](Cc1ccccc1)C(=O)N[C@@H](CNC(=O)c1c2c(nc3ccccc13)CCCC2)C(=O)O [L14]	>5	Good	Purity (hGH [2]): 71%; Dynamic 10% BT capacity for micro-filtrate hGH (hGH [2]): 6.7 mg/mL; Dynamic 10% BT capacity for pure hGH (hGH [2]): 16.3 mg/mL
N=C(N)NCCC[C@H](N)C(=O)N[C@@H](Cc1ccc(O)cc1)C(=O)N[C@@H](CNC(=O)C1c2ccccc2Oc2ccccc21)C(=O)O [L1]	14	Moderate	
CC[C@H](C)[C@H](N)C(=O)N[C@@H](Cc1ccccc1)C(=O)N[C@@H](CNC(=O)c1c2c(nc3ccccc13)CCCC2)C(=O)O [L10]	3	Very good	Purity of eluate (hGH [3]; Elution pH 7.25): 91%; Purity of eluate (hGH [3]; Elution pH 7.50): 85%; Purity of eluate (hGH [3]; Elution pH 8.00): 85%; dynamic 10% BT capacity for hGH micro-filtrate (hGH [4]): 3.22 mg/mL; Dynamic 10% BT capacity (purified hGH) (hGH [5]): 6.7 mg/mL
CC(O)C(N)C(=O)NC(CC(=O)O)C(=O)NC(CNC(=O)c1ccc2nccnc2c1)C(=O)O (stereo not shown) [L17]	<0.5		
Cc1nn(-c2ccccc2)nc1C(=O)NC[C@H](NC(=O)[C@H](Cc1ccccc1)NC(=O)[C@@H](N)Cc1c[nH]c2ccccc12)C(=O)O [L5]	2	Good	
O=C(NC[C@H](NC(=O)[C@H]1CCCN1C(=O)[C@H]1CCCN1)C(=O)O)c1c2c(nc3ccccc13)CCCC2 [L12]	2	Good	
N[C@@H](Cc1ccccc1)C(=O)N[C@@H](Cc1ccccc1)C(=O)N[C@@H](CNC(=O)C1c2ccccc2Oc2ccccc21)C(=O)O [L4]	1	Good	
N[C@@H](Cc1ccccc1)C(=O)N[C@@H](Cc1ccccc1)C(=O)N[C@@H](CNC(=O)c1c2c(nc3ccccc13)CCCC2)C(=O)O [L11]	2	Very good	
CC[C@@H](C)[C@H](NC(=O)[C@@H](N)Cc1c[nH]c2ccccc12)C(=O)N[C@@H](CNC(=O)c1scc(S(=O)(=O)c2ccccc2)c1N)C(=O)O [L7]	2	Good	
CC[C@H](C)[C@H](N)C(=O)N[C@@H](Cc1ccc(O)cc1)C(=O)N[C@@H](CNC(=O)c1scc(S(=O)(=O)c2ccccc2)c1N)C(=O)O [L8]	6	Moderate	
CC(C)(NC(=O)C(CNC(=O)c1ccc2ccccc2c1O)NC(=O)C(Cc1ccc(O)cc1)NC(=O)C(N)CCCNC(=N)N)C(=O)O (stereo not shown) [L19] (H-RY[Dap](X1)[Aib]-OH; configuration not given here)			binding capacity (wild type hGH; same procedures as Example 1): < 0.5 mg/mL
N=C(N)NCCC[C@H](NC(=O)[C@@H](N)Cc1ccccc1)C(=O)N[C@@H](CNC(=O)C1c2ccccc2Oc2ccccc21)C(=O)O [L2]	7	Good	
Cc1ccc([N+](=O)[O-])c(C(=O)NCC(NC(=O)C(Cc2c[nH]cn2)NC(=O)C(N)CC(=O)O)C(=O)O)c1 (stereo not shown) [L18]	<0.5		
N[C@@H](Cc1ccc(O)cc1)C(=O)N[C@@H](Cc1ccccc1)C(=O)N[C@@H](CNC(=O)C1c2ccccc2Oc2ccccc21)C(=O)O [L3]	5	Moderate	
NCCCC[C@H](NC(=O)[C@@H](N)Cc1ccccc1)C(=O)N[C@@H](CNC(=O)c1scc(S(=O)(=O)c2ccccc2)c1N)C(=O)O [L6]	13	Moderate	
N=C(N)NCCC[C@H](N)C(=O)N[C@@H](Cc1ccccc1)C(=O)N[C@@H](CNC(=O)C1CC(=O)c2ccccc21)C(=O)O (stereo partly shown) [L9]	10	Good	
Cc1nc2ccccn2c1C(=O)NC[C@H](NC(=O)[C@H](CCCNC(=N)N)NC(=O)[C@@H](N)Cc1ccccc1)C(=O)O [L15]	>5	Good	
